Experimental data taken from patent US20240116985A1, “STAPLED PEPTIDES AND METHODS THEREOF” (priority 2020, published 2024).
Read-outs that look alike come from different tables or passages of the source.

Legend:
[1] = molecular target: T1, full-length beta-Catenin (Uniprot ID P35222) (Homo sapiens, UniProt P35222); test: Fluorescence polarization IC50 (beta-catenin / 5FAM-TCF4 10-53 competition); format: binding
T1 construct: 10 nM full-length beta-Catenin (Uniprot ID P35222)
T1 sequence (P35222 1-781): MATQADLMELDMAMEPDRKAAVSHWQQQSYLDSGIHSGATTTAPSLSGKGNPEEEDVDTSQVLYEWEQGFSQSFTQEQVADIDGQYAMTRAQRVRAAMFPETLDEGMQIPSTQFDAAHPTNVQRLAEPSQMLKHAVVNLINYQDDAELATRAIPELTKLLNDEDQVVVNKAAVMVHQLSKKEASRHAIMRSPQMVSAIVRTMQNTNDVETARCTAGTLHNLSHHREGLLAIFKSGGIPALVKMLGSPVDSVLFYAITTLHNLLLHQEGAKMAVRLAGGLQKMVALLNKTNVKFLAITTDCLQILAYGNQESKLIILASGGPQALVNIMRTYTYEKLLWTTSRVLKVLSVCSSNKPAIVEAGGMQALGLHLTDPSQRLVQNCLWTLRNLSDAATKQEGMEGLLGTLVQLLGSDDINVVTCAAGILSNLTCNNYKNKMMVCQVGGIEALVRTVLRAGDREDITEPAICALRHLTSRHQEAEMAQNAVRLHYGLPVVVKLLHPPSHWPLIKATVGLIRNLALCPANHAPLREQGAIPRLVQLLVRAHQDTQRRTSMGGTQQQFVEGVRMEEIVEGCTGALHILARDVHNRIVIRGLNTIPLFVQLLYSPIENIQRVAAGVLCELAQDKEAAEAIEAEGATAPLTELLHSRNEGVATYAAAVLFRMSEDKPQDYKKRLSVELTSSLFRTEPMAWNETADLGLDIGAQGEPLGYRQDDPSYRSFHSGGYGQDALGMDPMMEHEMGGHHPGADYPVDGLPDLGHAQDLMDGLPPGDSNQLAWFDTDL

[2] = CHI Log D procedure; format: physicochemical; conditions: for chromatographic logD: pH 7.4, CHI Log D; for CHI Log D: pH 7.4
[3] = molecular target: T2, full-length B-Catenin (Uniprot ID P35222) (Homo sapiens, UniProt P35222); test: Alphascreen binding assay (beta-catenin / biotin-TCF4 10-53)
T2 construct: 65 nM full-length B-Catenin (Uniprot ID P35222)
T2 sequence (P35222 1-781): T1 sequence (P35222 1-781)
Method in brief: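 Final concentrations: 65 nM full-length human β-catenin plus 10 nM biotin-TCF4(10-53) peptide, test peptide 3-fold from 10 uM to 5 nM, preincubated 15 min at 20 °C in Tris pH 8.0/250 mM NaCl buffer. Nickel-chelate AlphaScreen donor/acceptor beads then added for 60 min in the dark; duplicate reads fitted to 1:1 binding model with Hill slope.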

[4] = Table E2-1, read-out: beta-Catenin FP IC50
[5] = fluorescence polarization, beta-catenin, read-out: FP EC50

| Compound | IC50 [1, 4] [µM] | chromatographic logD [2] | EC50 [3] [µM] | IC50 [1, 5] [µM] | CHI Log D [2] |
| --- | --- | --- | --- | --- | --- |
| CC[C@H](C)[C@@H]1NC(=O)[C@H](CC(=O)O)NC(=O)[C@]2(CC=CCCCC3(CCCC=CCCCCCC[C@@](C)(C(=O)N[C@@H](Cc4ccccc4)C(=O)N[C@@H](Cc4c[nH]c5ccccc45)C(=O)N[C@@H](C)C(N)=O)NC(=O)[C@H](CCC(N)=O)NC(=O)[C@H](Cc4ccccc4)NC(=O)[C@H](C)NC(=O)[C@H](C)NC(=O)[C@H](CCC(=O)O)NC(=O)[C@H](CC(=O)O)NC3=O)NC1=O)CCCN2C(C)=O (stereo partly drawn) [I-194, Ac-PL3-Asp-Ile-B5-Asp-Glu-Ala-Ala-Phe-Gln-S8-Phe-Trp-Ala-NH2] | 1.01 | 2.33 | 0.105 | – | – |
| COc1ccc(C[C@@H]2NC(=O)[C@H](C)NC(=O)[C@H](C)NC(=O)[C@H](CCC(=O)O)NC(=O)[C@H](CC(=O)O)NC(=O)C3(CCCC=CCCCCCC[C@@](C)(C(=O)N[C@@H](Cc4ccccc4)C(=O)N[C@@H](Cc4c[nH]c5ccccc45)C(=O)N[C@@H](CCC(N)=O)C(N)=O)NC(=O)[C@H](C(C)C)NC2=O)CCCC=CC[C@]2(CCCN2C(C)=O)C(=O)N[C@@H](CC(=O)O)C(=O)N[C@@H](C)C(=O)N3)cc1 (stereo partly drawn) [I-217, Ac-PL3-Asp-Ala-B5-Asp-Glu-Ala-Ala-MeTyr-Val-S8-Phe-Trp-Gln-NH2] | 1.96 | – | 0.09 | 1.96 | 2.012 |
| CC[C@H](C)[C@@H]1NC(=O)[C@H](CC(=O)O)NC(=O)[C@]2(CC=CCCCC3(CCCC=CCCCCCC[C@@](C)(C(=O)N[C@@H](Cc4ccccc4)C(=O)N[C@@H](Cc4c[nH]c5ccccc45)C(N)=O)NC(=O)[C@H](CCC(N)=O)NC(=O)[C@H](Cc4ccccc4)NC(=O)[C@H](C)NC(=O)[C@H](C)NC(=O)[C@H](CCC(=O)O)NC(=O)[C@H](CC(=O)O)NC3=O)NC1=O)CCCN2C(C)=O (stereo partly drawn) [I-192, Ac-PL3-Asp-Ile-B5-Asp-Glu-Ala-Ala-Phe-Gln-S8-Phe-Trp-NH2] | – | – | 0.24 | 1.66 | 2.412 |
| CC(=O)N1CCC[C@]12CC=CCCCC1(CCCC=CCCCCCC[C@@](C)(C(=O)N[C@@H](Cc3ccccc3)C(=O)N[C@@H](Cc3c[nH]c4ccccc34)C(=O)N[C@@H](CCC(N)=O)C(N)=O)NC(=O)[C@H](C(C)C)NC(=O)[C@H](Cc3cccc(C(F)(F)F)c3)NC(=O)[C@H](C)NC(=O)[C@H](C)NC(=O)[C@H](CC(=O)O)NC(=O)[C@H](CC(=O)O)NC1=O)NC(=O)[C@H](C)NC(=O)[C@H](CC(=O)O)NC2=O (stereo partly drawn) [I-238, Ac-PL3-Asp-Ala-B5-Asp-Asp-Ala-Ala-3F3MeF-Val-S8-Phe-Trp-Gln-NH2] | 1.59 | – | 0.267 | 1.59 | 2.074 |
| CC[C@H](C)[C@H](NC(=O)[C@H](CC(=O)O)NC(=O)[C@H](C)NC(C)=O)C(=O)N[C@]1(C)CCN(C)C(=O)OCC=CCCCCC[C@@](C)(C(=O)N[C@@H](Cc2ccccc2)C(=O)N[C@@H](Cc2c[nH]c3ccccc23)C(N)=O)NC(=O)[C@H](CCC(N)=O)NC(=O)[C@H](Cc2ccccc2)NC(=O)[C@H](C)NC(=O)[C@H](C)NC(=O)[C@H](CCC(=O)O)NC(=O)[C@H](CC(=O)O)NC1=O [I-148, Ac-Ala-Asp-Ile-RdN-Asp-Glu-Ala-Ala-Phe-Gln-S7-Phe-Trp-NH2] | 2.77 | 1.36 | 0.398 | – | – |
| CC(=O)N1CCC[C@]12CC=CCCCC1(CCCC=CCCCCCC[C@@](C)(C(=O)N[C@@H](Cc3ccccc3)C(=O)N[C@@H](Cc3c[nH]c4ccccc34)C(=O)N[C@@H](Cc3c[nH]cn3)C(N)=O)NC(=O)[C@H](CCC(N)=O)NC(=O)[C@H](Cc3ccccc3)NC(=O)[C@H](C)NC(=O)[C@H](C)NC(=O)[C@H](CCC(=O)O)NC(=O)[C@H](CC(=O)O)NC1=O)NC(=O)[C@H](C)NC(=O)[C@H](CC(=O)O)NC2=O (stereo partly drawn) [I-178, Ac-PL3-Asp-Ala-B5-Asp-Glu-Ala-Ala-Phe-Gln-S8-Phe-Trp-His-NH2] | 1.63 | – | 0.152 | 1.63 | 1.913 |
| CC(=O)N1CCC[C@]12CC=CCCCC1(CCCC=CCCCCCC[C@@](C)(C(=O)N[C@@H](Cc3ccccc3)C(=O)N[C@@H](Cc3c[nH]c4ccccc34)C(=O)N[C@@H](CCC(N)=O)C(N)=O)NC(=O)[C@H](C(C)C)NC(=O)[C@H](Cc3cccc(C(F)(F)F)c3)NC(=O)[C@H](C)NC(=O)[C@H](C)NC(=O)[C@H](CC(=O)O)NC(=O)[C@H](CC(=O)O)NC1=O)NC(=O)[C@H](C)NC(=O)[C@H](CC(=O)O)NC2=O (stereo partly drawn) [I-239, Ac-PL3-Asp-Ala-B5-Asp-Asp-Ala-Ala-3F3MeF-Val-S8-Phe-Trp-Gln-NH2] | – | – | 0.267 | 1.59 | 2.074 |
| CC[C@H](C)[C@H](NC(=O)[C@H](CC(=O)O)NC(=O)[C@H](C)NC(C)=O)C(=O)N[C@]1(C)CCN(C)C(=O)OCC=CCCCCC[C@@](C)(C(=O)N[C@@H](Cc2ccccc2)C(=O)N[C@@H](Cc2c[nH]c3ccccc23)C(=O)N[C@@H](Cc2c[nH]cn2)C(N)=O)NC(=O)[C@H](CCC(N)=O)NC(=O)[C@H](Cc2ccccc2)NC(=O)[C@H](C)NC(=O)[C@H](C)NC(=O)[C@H](CC(=O)O)NC(=O)[C@H](CC(=O)O)NC1=O [I-64, Ac-Ala-Asp-Ile-RdN-Asp-Asp-Ala-Ala-Phe-Gln-S7-Phe-Trp-His-NH2] | 4.25 | – | 0.65 | 4.25 | 1.222 |
| CC(=O)N1CCC[C@]12CC=CCCCC1(CCCC=CCCCCCC[C@@](C)(C(=O)N[C@@H](Cc3ccccc3)C(=O)N[C@@H](Cc3csc4ccccc34)C(=O)N[C@@H](CCC(N)=O)C(N)=O)NC(=O)[C@H](CCC(N)=O)NC(=O)[C@H](Cc3ccccc3)NC(=O)[C@H](C)NC(=O)[C@H](C)NC(=O)[C@H](CC(=O)O)NC(=O)[C@H](CC(=O)O)NC1=O)NC(=O)[C@H](C)NC(=O)[C@H](CC(=O)O)NC2=O (stereo partly drawn) [I-294, Ac-PL3-Asp-Ala-B5-Asp-Asp-Ala-Ala-Phe-Gln-S8-Phe-BztA-Gln-NH2] | 0.13 | 2 | 0.04 | – | – |
| CC(=O)N1CCC[C@]12CC=CCCCC1(CCCC=CCCCCCC[C@@](C)(C(=O)N[C@@H](Cc3ccccc3)C(=O)N[C@@H](Cc3c[nH]c4ccccc34)C(=O)N[C@@H](CCC(N)=O)C(N)=O)NC(=O)[C@H](C(C)C)NC(=O)[C@H](Cc3cc(F)c(F)c(F)c3)NC(=O)[C@H](C)NC(=O)[C@H](C)NC(=O)[C@H](CCC(=O)O)NC(=O)[C@H](CC(=O)O)NC1=O)NC(=O)[C@H](C)NC(=O)[C@H](CC(=O)O)NC2=O (stereo partly drawn) [I-209, Ac-PL3-Asp-Ala-B5-Asp-Glu-Ala-Ala-345FF-Val-S8-Phe-Trp-Gln-NH2] | – | – | 1.4 | – | 2.088 |
| CC(=O)N1CCC[C@]12CC=CCCCC1(CCCC=CCCCCCC[C@@](C)(C(=O)N[C@@H](Cc3ccccc3)C(=O)N[C@@H](Cc3c[nH]c4ccccc34)C(=O)N[C@@H](CCC(N)=O)C(N)=O)NC(=O)[C@H](C(C)C)NC(=O)[C@H](Cc3cccc(C(F)(F)F)c3)NC(=O)[C@H](C)NC(=O)[C@H](C)NC(=O)[C@H](CC(=O)O)NC(=O)[C@H](CC(=O)O)NC1=O)NC(=O)[C@H](C)NC(=O)[C@H](CC(=O)O)NC2=O (stereo partly drawn) [I-236, Ac-PL3-Asp-Ala-B5-Asp-Asp-Ala-Ala-3F3MeF-Val-S8-Phe-Trp-Gln-NH2] | – | – | 0.384 | – | 2.067 |
| CC[C@H](C)[C@H](NC(=O)[C@H](CC(=O)O)NC(C)=O)C(=O)N[C@]1(C)CCN(C)C(=O)OCC=CCCCCC[C@@](C)(C(=O)N[C@@H](Cc2ccccc2)C(=O)N[C@@H](Cc2c[nH]c3ccccc23)C(=O)N[C@@H](Cc2c[nH]cn2)C(N)=O)NC(=O)[C@H](CCC(N)=O)NC(=O)[C@H](Cc2ccccc2)NC(=O)[C@H](C)NC(=O)[C@H](C)NC(=O)[C@H](CC(=O)O)NC(=O)[C@H](CC(=O)O)NC1=O [I-150, Ac-Asp-Ile-RdN-Asp-Asp-Ala-Ala-Phe-Gln-S7-Phe-Trp-His-NH2] | – | – | 1.94 | – | 1.297 |
| CC(=O)N[C@@H](Cc1ccccc1)C(=O)N[C@@H](CC(=O)O)C(=O)N[C@@H](C)C(=O)N[C@]1(C)CCCCCCC=CCOC(=O)N2CC[C@@](C(=O)N[C@@H](Cc3ccccc3)C(=O)N[C@@H](Cc3c[nH]c4ccccc34)C(=O)N[C@@H](CCC(N)=O)C(N)=O)(C2)NC(=O)[C@H]([C@@H](C)O)NC(=O)[C@H](Cc2ccccc2)NC(=O)[C@H](C)NC(=O)[C@H](C)NC(=O)[C@H](CC(=O)O)NC(=O)[C@H](CC(=O)O)NC1=O [I-222, Ac-Phe-Asp-Ala-R8-Asp-Asp-Ala-Ala-Phe-Thr-PyrS-Phe-Trp-Gln-NH2] | – | – | 6.58 | – | 1.34 |
